The values that follow come from patent US10836725B2, “Modulators of the integrated stress pathway” (Calico Life Sciences LLC, priority 2016, dated 2020).

The subject of this experiment is ATF4 luciferase reporter. The experiment can be described thus: ATF4-Luc assay in HEK293T cells carrying the ATF4 luciferase reporter (in vitro model of VWMD). It counts as cell-based, human. The note with it: Homo sapiens, HEK-293T, 1 μg/mL tunicamycin, 7 hours, luminescence (One Glo). The method in brief: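 Reporter cells were stably generated by retroviral transduction and puromycin selection, then seeded at 30,000 cells/well. Next day, cells received 1 μg/mL tunicamycin with 200 nM test compound for 7 h, and luciferase luminescence was read with a one-step reagent. Values reported as EC50.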
As for `O=C(COc1ccc(Cl)c(F)c1)NC12CCC(C(=O)NCc3ccc(C(F)(F)F)cc3)(CC1)C(O)C2` (stereo not shown) [Compound 110, 4-[2-(4-chloro-3-fluorophenoxy)acetamido]-2-hydroxy-N-{[4-(trifluoromethyl)phenyl]methyl}bicyclo[2.2.2]octane-1-carboxamide], the EC50 was under 250 nM.

Consider `O=C(COc1ccc(Cl)c(F)c1)NC12CC(C(=O)NCc3ccc(OC(F)F)cn3)(C1)C2` [Compound 147, 3-[2-(4-chloro-3-fluorophenoxy)acetamido]-N-{[5-(difluoromethoxy)pyridin-2-yl]methyl}bicyclo[1.1.1]pentane-1-carboxamide], for which the EC50 was in the range of 250 to 500 nM.

Consider `Cc1cccc(CNC(=O)C23CC(NC(=O)COc4ccc(Cl)c(F)c4)(C2)C3)c1` [Compound 166, 3-[2-(4-chloro-3-fluorophenoxy)acetamido]-N-[(3-methylphenyl)methyl]bicyclo[1.1.1]pentane-1-carboxamide], for which the EC50 was over 2000 nM.

As for `Cn1ccc(CNC(=O)C23CC(NC(=O)COc4ccc(Cl)c(F)c4)(C2)C3)n1` [Compound 179, 3-[2-(4-chloro-3-fluorophenoxy)acetamido]-N-[(1-methyl-1H-pyrazol-3-yl)methyl]bicyclo[1.1.1]pentane-1-carboxamide], the EC50 is over 2000 nM.

`O=C(COc1ccc(Cl)c(F)c1)NC12CCC(C(=O)NCc3cccc(C(F)(F)F)c3)(CC1)C(O)C2` (stereo not shown) [Compound 135, 4-[2-(4-chloro-3-fluorophenoxy)acetamido]-2-hydroxy-N-{[3-(trifluoromethyl)phenyl]methyl}bicyclo[2.2.2]octane-1-carboxamide]: the EC50 was under 250 nM.

Consider `Cc1ccc(OCCNC(=O)C23CC(NC(=O)COc4ccc(Cl)cc4)(C2)C3)cc1` [Compound 105, 3-[2-(4-chlorophenoxy)acetamido]-N-[2-(4-methylphenoxy)ethyl]bicyclo-[1.1.1]pentane-1-carboxamide], for which the EC50 lay within 500 to 1000 nM.

In the case of `O=C(COc1ccc(Cl)c(F)c1)NC12CCC(C(=O)NCc3ccc(OC(F)(F)F)cc3)(CC1)C(O)C2` (stereo not shown) [Compound 133, 4-[2-(4-chloro-3-fluorophenoxy)acetamido]-2-hydroxy-N-{[4-(trifluoromethoxy)phenyl]methyl}bicyclo[2.2.2]octane-1-carboxamide], the concentration giving a half-maximal response (EC50) was under 250 nM.

Turning to `Cc1cc(CNC(=O)C23CC(NC(=O)COc4ccc(Cl)c(F)c4)(C2)C3)c(C)o1` [Compound 160, 3-[2-(4-chloro-3-fluorophenoxy)acetamido]-N-[(2,5-dimethylfuran-3-yl)methyl]bicyclo[1.1.1]pentane-1-carboxamide], the EC50 was over 2000 nM.

As to `O=C(COc1ccc(Cl)c(Cl)c1)NC12CC(C(=O)NCc3ccc(C(F)(F)F)nc3)(C1)C2` [Compound 150, 3-[2-(3,4-dichlorophenoxy)acetamido]-N-{[6-(trifluoromethyl)pyridin-3-yl]methyl}bicyclo[1.1.1]pentane-1-carboxamide], the EC50 was under 250 nM.

As for `O=C(COc1ccc(Cl)c(F)c1)NC12CC(C(=O)NCCc3ccc(F)cc3)(C1)C2` [Compound 239, 3-[2-(4-chloro-3-fluorophenoxy)acetamido]-N-[2-(4-fluorophenyl)ethyl]bicyclo[1.1.1]pentane-1-carboxamide], the EC50 is over 2000 nM.

Turning to `O=C(COc1ccc(Cl)c(F)c1)NC12CC(C(=O)NCc3ccccc3OC(F)F)(C1)C2` [Compound 243, 3-[2-(4-chloro-3-fluorophenoxy)acetamido]-N-{[2-(difluoromethoxy)phenyl]methyl}bicyclo[1.1.1]pentane-1-carboxamide], the EC50 was over 2000 nM.

Consider `Cc1ccnc(CNC(=O)C23CC(NC(=O)COc4ccc(Cl)c(F)c4)(C2)C3)c1` [Compound 221, 3-[2-(4-chloro-3-fluorophenoxy)acetamido]-N-[(4-methylpyridin-2-yl)methyl]bicyclo[1.1.1]pentane-1-carboxamide], for which the EC50 was over 2000 nM.

Turning to `CC(C)c1cc(CNC(=O)C23CCC(NC(=O)COc4ccc(Cl)c(F)c4)(CC2)CC3O)on1` (stereo not shown) [Compound 109, 4-[2-(4-chloro-3-fluorophenoxy)acetamido]-2-hydroxy-N-{[3-(propan-2-yl)-1,2-oxazol-5-yl]methyl}bicyclo[2.2.2]octane-1-carboxamide], the EC50 is 500 to 1000 nM.

On to `COc1ccc(CNC(=O)C23CC(NC(=O)COc4ccc(Cl)c(F)c4)(C2)C3)cc1OC` [Compound 202, 3-[2-(4-chloro-3-fluorophenoxy)acetamido]-N-[(3,4-dimethoxyphenyl)methyl]bicyclo[1.1.1]pentane-1-carboxamide], for which the EC50 is over 2000 nM.

With `COc1ccc(CNC(=O)C23CC(NC(=O)COc4ccc(Cl)c(F)c4)(C2)C3)cc1` [Compound 195, 3-[2-(4-chloro-3-fluorophenoxy)acetamido]-N-[(4-methoxyphenyl)methyl]bicyclo[1.1.1]pentane-1-carboxamide], the EC50 was over 2000 nM.

For the compound `O=C(COc1ccc(Cl)c(F)c1)NC12CC(C(=O)NCc3cc(F)cc(C(F)(F)F)c3)(C1)C2` [Compound 231, 3-[2-(4-chloro-3-fluorophenoxy)acetamido]-N-{[3-fluoro-5-(trifluoromethyl)phenyl]methyl}bicyclo[1.1.1]pentane-1-carboxamide], the EC50 was over 2000 nM.

As for `O=C(COc1ccc(Cl)c(F)c1)NC12CCC(C(=O)NCc3ccc(Cl)cc3)(CC1)C(O)C2` (stereo not shown) [Compound 132, 4-[2-(4-chloro-3-fluorophenoxy)acetamido]-N-[(4-chlorophenyl)methyl]-2-hydroxybicyclo[2.2.2]octane-1-carboxamide], the EC50 was under 250 nM.

As for `C[C@@H](NC(=O)C12CC(NC(=O)COc3ccc(Cl)c(F)c3)(C1)C2)c1ccc(Cl)cc1` [Compound 198, 3-[2-(4-chloro-3-fluorophenoxy)acetamido]-N-[(1R)-1-(4-chlorophenyl)ethyl]bicyclo[1.1.1]pentane-1-carboxamide], the EC50 was over 2000 nM.

As for `O=C(COc1ccc(Cl)c(F)c1)NC12CC(C(=O)NCc3ccc(OC(F)(F)F)cc3)(C1)C2` [Compound 225, 3-[2-(4-chloro-3-fluorophenoxy)acetamido]-N-{[4-(trifluoromethoxy)phenyl]methyl}bicyclo[1.1.1]pentane-1-carboxamide], the EC50 was over 2000 nM.

Regarding `Cc1cccc(CNC(=O)C23CCC(NC(=O)COc4ccc(Cl)c(F)c4)(CC2)CC3O)c1` (stereo not shown) [Compound 124, 4-[2-(4-chloro-3-fluorophenoxy)acetamido]-2-hydroxy-N-[(3-methylphenyl)methyl]bicyclo[2.2.2]octane-1-carboxamide], the EC50 was in the range of 500 to 1000 nM.

With `Cc1csc(CNC(=O)C23CC(NC(=O)COc4ccc(Cl)c(F)c4)(C2)C3)n1` [Compound 176, 3-[2-(4-chloro-3-fluorophenoxy)acetamido]-N-[(4-methyl-1,3-thiazol-2-yl)methyl]bicyclo[1.1.1]pentane-1-carboxamide], the EC50 was over 2000 nM.

As for `COc1ccc(CNC(=O)C23CC(NC(=O)COc4ccc(Cl)c(F)c4)(C2)C3)cc1F` [Compound 173, 3-[2-(4-chloro-3-fluorophenoxy)acetamido]-N-[(3-fluoro-4-methoxyphenyl)methyl]bicyclo[1.1.1]pentane-1-carboxamide], the concentration for a half-maximal effect (EC50) is over 2000 nM.

As to `Cc1ccc(CNC(=O)C23CCC(NC(=O)COc4ccc(Cl)c(F)c4)(CC2)CC3O)nc1` (stereo not shown) [Compound 142, 4-[2-(4-chloro-3-fluorophenoxy)acetamido]-2-hydroxy-N-[(5-methylpyridin-2-yl)methyl]bicyclo[2.2.2]octane-1-carboxamide], the EC50 lay in the range of 500 to 1000 nM.

Take `Cc1cc(C)c(CNC(=O)C23CCC(NC(=O)COc4ccc(Cl)c(F)c4)(CC2)CC3O)cn1` (stereo not shown) [Compound 111, 4-[2-(4-chloro-3-fluorophenoxy)acetamido]-N-[(4,6-dimethylpyridin-3-yl)methyl]-2-hydroxybicyclo[2.2.2]octane-1-carboxamide]: the EC50 was over 2000 nM.

For the compound `O=C(COc1ccc(Cl)c(F)c1)NC12CC(C(=O)NCc3ccccn3)(C1)C2` [Compound 224, 3-[2-(4-chloro-3-fluorophenoxy)acetamido]-N-[(pyridin-2-yl)methyl]bicyclo[1.1.1]pentane-1-carboxamide], the EC50 is over 2000 nM.

Turning to `Cc1cccc(OCCNC(=O)C23CC(NC(=O)COc4ccc(Cl)cc4)(C2)C3)c1` [Compound 101, 3-[2-(4-chlorophenoxy)acetamido]-N-[2-(3-methylphenoxy)ethyl]bicyclo[1.1.1]-pentane-1-carboxamide], the EC50 was 1000 to 2000 nM.

Turning to `CCOc1ccccc1CNC(=O)C12CC(NC(=O)COc3ccc(Cl)c(F)c3)(C1)C2` [Compound 182, 3-[2-(4-chloro-3-fluorophenoxy)acetamido]-N-[(2-ethoxyphenyl)methyl]bicyclo[1.1.1]pentane-1-carboxamide], the EC50 is over 2000 nM.

Turning to `O=C(COc1ccc(Cl)c(F)c1)NC12CC(C(=O)NCc3ccc(OC(F)F)cc3)(C1)C2` [Compound 169, 3-[2-(4-chloro-3-fluorophenoxy)acetamido]-N-{[4-(difluoromethoxy)phenyl]methyl}bicyclo[1.1.1]pentane-1-carboxamide], the EC50 lay in the range of 500 to 1000 nM.

In the case of `COc1cccc(CNC(=O)C23CCC(NC(=O)COc4ccc(Cl)c(F)c4)(CC2)CC3O)c1` (stereo not shown) [Compound 127, 4-[2-(4-chloro-3-fluorophenoxy)acetamido]-2-hydroxy-N-[(3-methoxyphenyl)methyl]bicyclo[2.2.2]octane-1-carboxamide], the EC50 was in the range of 1000 to 2000 nM.

Take `CCc1nccc(CNC(=O)C23CC(NC(=O)COc4ccc(Cl)c(F)c4)(C2)C3)n1` [Compound 217, 3-[2-(4-chloro-3-fluorophenoxy)acetamido]-N-[(2-ethylpyrimidin-4-yl)methyl]bicyclo[1.1.1]pentane-1-carboxamide]: the EC50 was over 2000 nM.

Turning to `CCCCc1ccc(CNC(=O)C23CC(NC(=O)COc4ccc(Cl)c(F)c4)(C2)C3)cc1` [Compound 238, N-[(4-butylphenyl)methyl]-3-[2-(4-chloro-3-fluorophenoxy)acetamido]bicyclo[1.1.1]pentane-1-carboxamide], the EC50 is over 2000 nM.
